Measurements published in PubChem BioAssay (NCI).
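Briefly, cells in 96-well plates were exposed to five compound concentrations for 48 h, and endpoints were estimated by linear interpolation. At the GI50, growth is halved. TGI: concentration producing complete growth inhibition.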

How the values were obtained:
Test in all cases: growth of human tumour cells (NCI), 48 h
SF-539 CNS = system: SF-539 CNS
UO-31 renal = system: UO-31 renal
OVCAR-4 ovarian = system: OVCAR-4 ovarian
A498 renal = system: A498 renal
NCI-H23 lung = system: NCI-H23 lung
OVCAR-5 ovarian = system: OVCAR-5 ovarian
RPMI-8226 leukemia = system: RPMI-8226 leukemia
MALME-3M melanoma = system: MALME-3M melanoma
HOP-92 NSCLC = system: HOP-92 NSCLC
SNB-19 CNS = system: SNB-19 CNS

SMILES	TGI (SF-539 CNS)	TGI (UO-31 renal)	TGI (OVCAR-4 ovarian)	TGI (A498 renal)	TGI (NCI-H23 lung)	TGI (OVCAR-5 ovarian)	TGI (RPMI-8226 leukemia)	TGI (MALME-3M melanoma)	TGI (HOP-92 NSCLC)	TGI (SNB-19 CNS)	GI50 (SF-539 CNS)	GI50 (UO-31 renal)	GI50 (OVCAR-4 ovarian)	GI50 (A498 renal)	GI50 (NCI-H23 lung)	GI50 (OVCAR-5 ovarian)	GI50 (RPMI-8226 leukemia)	GI50 (MALME-3M melanoma)	GI50 (HOP-92 NSCLC)	GI50 (SNB-19 CNS)
N#CC1(Nc2ccc(-c3ccc(NC4(C#N)CCCC4)cc3)cc2)CCCC1	78.2 µM	> 100 µM	> 100 µM	> 100 µM	> 100 µM	> 100 µM	> 100 µM	> 100 µM	> 100 µM	> 100 µM	–	–	–	–	–	–	–	–	–	–
NS(=O)(=O)c1ccc(NCc2cnc3ccccc3n2)cc1	> 100 µM	> 100 µM	> 100 µM	> 100 µM	> 100 µM	> 100 µM	> 100 µM	> 100 µM	> 100 µM	> 100 µM	–	–	–	–	–	–	–	–	–	–
CC1=C(C(=O)Nc2ccc3[nH]ncc3c2)C(c2ccc(Cl)c(Cl)c2)CC(=O)N1 (stereo not given)	> 25 µM	> 25 µM	> 25 µM	> 25 µM	> 25 µM	> 25 µM	> 25 µM	> 25 µM	> 7.6 µM	> 25 µM	> 16.8 µM	3.22 µM	> 25 µM	4.14 µM	> 25 µM	> 25 µM	> 25 µM	10.6 µM	0.277 µM	> 25 µM
c1ccc(CN2CCC3(CC2)SSC2(CCN(Cc4ccccc4)CC2)SS3)cc1	> 100 µM	> 100 µM	> 100 µM	> 100 µM	> 100 µM	> 100 µM	> 100 µM	> 100 µM	> 100 µM	> 100 µM	–	–	–	–	–	–	–	–	–	–
COc1cc2oc(-c3ccc(O)cc3O)c(CC=C(C)C)c(=O)c2c(O)c1/C=C/C(C)C	10.4 µM	8.08 µM	8.44 µM	5.12 µM	8.87 µM	18.7 µM	8.73 µM	14.2 µM	7.3 µM	9.42 µM	–	–	–	–	–	–	–	–	–	–
CCOc1ccc2c(C)cc(=O)oc2c1	> 100 µM	> 100 µM	> 100 µM	> 100 µM	> 100 µM	> 100 µM	> 100 µM	> 100 µM	> 100 µM	> 100 µM	–	–	–	–	–	–	–	–	–	–
CCCCCCC/C=C/[C@H]1O[C@]2(O)C(=O)C=C3C[C@@H](O[C@@H]4O[C@H](CO)[C@@H](O)C(O)[C@@H]4O)C[C@@H]3[C@H]2C=C1C (stereo not given in full)	5.12 µM	2.36 µM	7.83 µM	9.13 µM	13 µM	10.8 µM	1.98 µM	10.3 µM	11.3 µM	8.04 µM	1.32 µM	0.666 µM	2.75 µM	4.41 µM	4.96 µM	4.74 µM	0.711 µM	4.8 µM	3.3 µM	3.52 µM
CC(=O)[CH-]C(=O)c1ccccc1.CC(=O)[CH-]C(=O)c1ccccc1.CC[C@H](/C=C/C(C)[C@H]1CCC2[C@@H]3CC=C4C[C@@H]([O-])CC[C@]4(C)C3CC[C@@]21C)C(C)C.CC[O-].[Ti+4] (stereo not given in full)	> 100 µM	> 100 µM	> 100 µM	> 100 µM	> 100 µM	> 100 µM	> 100 µM	> 100 µM	> 100 µM	> 100 µM	> 100 µM	> 100 µM	> 100 µM	> 100 µM	> 100 µM	> 100 µM	> 100 µM	> 100 µM	95.3 µM	> 100 µM
C[N+](C)(CCCCCC[N+](C)(C)CCCN1C(=O)c2cc3ccccc3cc2C1=O)CCCN1C(=O)c2cc3ccccc3cc2C1=O	> 37.5 µM	> 37.5 µM	> 37.5 µM	> 37.5 µM	> 37.5 µM	> 37.5 µM	> 37.5 µM	> 37.5 µM	> 37.5 µM	> 37.5 µM	> 37.5 µM	> 37.5 µM	> 37.5 µM	> 37.5 µM	> 37.5 µM	> 37.5 µM	> 37.5 µM	> 37.5 µM	> 37.5 µM	> 37.5 µM
O=C(CC1(O)C(=O)Nc2ccccc21)c1ccc(F)cc1 (stereo not given)	> 100 µM	> 100 µM	> 100 µM	> 100 µM	> 100 µM	> 100 µM	> 100 µM	> 100 µM	> 100 µM	> 100 µM	–	–	–	–	–	–	–	–	–	–
COC(=O)c1ccc2c(c1)C(=O)c1c-2n(C)c(=O)c2cc(OC)c(OC)cc12	> 50 µM	> 50 µM	> 50 µM	> 50 µM	> 50 µM	> 50 µM	> 50 µM	> 50 µM	> 50 µM	> 50 µM	> 50 µM	> 50 µM	> 50 µM	> 50 µM	> 50 µM	> 50 µM	> 50 µM	> 50 µM	18.8 µM	> 50 µM
COc1cccc(-n2cc(-c3nc(Nc4cc(C)[nH]n4)c4ccccc4n3)nn2)c1	11.1 µM	5.39 µM	9.57 µM	7.08 µM	22.4 µM	12 µM	13.8 µM	13.7 µM	9.53 µM	15.7 µM	4.25 µM	0.187 µM	2.24 µM	0.291 µM	6.28 µM	3.51 µM	3.57 µM	5.31 µM	1.67 µM	6.61 µM
C[C@]12CC[C@H]3[C@@H](CCC4=CC(=O)CC[C@@]43C)[C@@H]1CC[C@@H]2C(=O)COS(=O)(=O)c1ccc(Br)cc1	> 60.7 µM	3.5 µM	> 51.2 µM	37.2 µM	8.62 µM	35.2 µM	12 µM	12.7 µM	18.3 µM	44.6 µM	–	–	–	–	–	–	–	–	–	–
